# Data from PubChem BioAssay AID1259411 (Chemical Carcinogenesis Research Information System (CCRIS), 2018).
# Activity calls are given as the source filed them. No rule for the calls is given here.
# System: rodent carcinogenicity bioassays, tumor incidence
# Assay: CCRIS carcinogenicity studies
# Summary of the method: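 NCI-built, expert-reviewed records of carcinogenicity and related test outcomes (mutagenicity, tumor promotion/inhibition) compiled from published and report sources, historical span 1985-2011, not updated.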
smiles,measurement,setting,value
CN(C=O)N=O,carcinogen call,"Species: HAMSTER, Strain/Sex: SYRIAN/FEMALE, Route: GAVAGE, Dose: 0, 0.6 MG IN CORN OIL 1/WK FOR 15 WK (STUDY DURATION: 30 WK)",inactive; negative
same,carcinogen call,"Species: HAMSTER, Strain/Sex: SYRIAN/MALE, Route: GAVAGE, Dose: 0, 0.6 MG IN CORN OIL 1/WK FOR 15 WK (STUDY DURATION: 35 WK), Tumor Site: Type of Lesion: FORESTOMACH: TUMOR",active; positive
same,carcinogen call,"Species: RAT, Strain/Sex: F344/FEMALE, Route: GAVAGE, Dose: 0, 0.6 MG IN CORN OIL 2/WK FOR 20 WK (STUDY DURATION: 40 WK), Tumor Site: Type of Lesion: FORESTOMACH: TUMOR, ESOPHAGUS: TUMOR",active; positive
same,carcinogen call,"Species: RAT, Strain/Sex: F344/MALE, Route: GAVAGE, Dose: 0, 0.6 MG IN CORN OIL 2/WK FOR 20 WK (STUDY DURATION: 40 WK), Tumor Site: Type of Lesion: FORESTOMACH: TUMOR",active; positive
S=P(N1CC1)(N1CC1)N1CC1,carcinogen call,"Species: MOUSE, Strain/Sex: B6C3F1/FEMALE, Route: INTRAPERITONEAL, Dose: 0, 1.15, 2.3 MG/KG 3/WK FOR 43-52 WK (STUDY DURATION: 86-87 WK), Dose: 0, 1.15, 2.3 MG/KG 3/WK FOR 43-52 WK (STUDY DURATION: 86-87 WK), Tumor Site: Type of Lesion: HEMATOPOIETIC SYSTEM (LEUKEMIA): LYMPHOCYTIC LEUKEMIA, LYMPHATIC SYSTEM: LYMPHOMA",active; positive
same,carcinogen call,"Species: MOUSE, Strain/Sex: B6C3F1/MALE, Route: INTRAPERITONEAL, Dose: 0, 1.15, 2.3 MG/KG 3/WK FOR 52 WK (STUDY DURATION: 56-87 WK), Dose: 0, 1.15, 2.3 MG/KG 3/WK FOR 52 WK (STUDY DURATION: 56-87 WK), Tumor Site: Type of Lesion: INTEGUMENTARY SYSTEM (SKIN): SQUAMOUS CELL CARCINOMA, HEMATOPOIETIC SYSTEM (LEUKEMIA), LYMPHATIC SYSTEM: LYMPHOMA, EAR (, Tumor Site: Type of Lesion: INTEGUMENTARY SYSTEM (SKIN): SQUAMOUS CELL CARCINOMA, HEMATOPOIETIC SYSTEM (LEUKEMIA), LYMPHATIC SYSTEM: LYMPHOMA, EAR (",active; positive
same,carcinogen call,"Species: RAT, Strain/Sex: SPRAGUE-DAWLEY/FEMALE, Route: INTRAPERITONEAL, Dose: 0, 0.7, 1.4, 2.8 MG/KG 3/WK FOR 21-52 WK (STUDY DURATION: 21-87 WK), Dose: 0, 0.7, 1.4, 2.8 MG/KG 3/WK FOR 21-52 WK (STUDY DURATION: 21-87 WK), Tumor Site: Type of Lesion: MAMMARY GLAND: ADENOCARCINOMA, PITUITARY GLAND: CHROMOPHOBE ADENOMA",active; positive
same,carcinogen call,"Species: RAT, Strain/Sex: SPRAGUE-DAWLEY/MALE, Route: INTRAPERITONEAL, Dose: 0, 0.7, 1.4, 2.8 MG/KG 3/WK FOR 19-52 WK (STUDY DURATION: 19-87 WK), Dose: 0, 0.7, 1.4, 2.8 MG/KG 3/WK FOR 19-52 WK (STUDY DURATION: 19-87 WK), Tumor Site: Type of Lesion: INTEGUMENTARY SYSTEM (SKIN): SQUAMOUS CELL CARCINOMA, INTEGUMENTARY SYSTEM (SUBCUTANEOUS TISSUE): SARCOMA, HEMATOPOIETIC, Tumor Site: Type of Lesion: INTEGUMENTARY SYSTEM (SKIN): SQUAMOUS CELL CARCINOMA, INTEGUMENTARY SYSTEM (SUBCUTANEOUS TISSUE): SARCOMA, HEMATOPOIETIC",active; positive
O=C(Nc1ccc([N+](=O)[O-])cc1Cl)c1cc(Cl)ccc1O,carcinogen call,"Species: MOUSE, Strain/Sex: B6C3F1/FEMALE, Route: ORAL, Dose: 0, 274, 549 PPM IN DIET FOR 78 WK (STUDY DURATION: 91-92 WK), Dose: 0, 274, 549 PPM IN DIET FOR 78 WK (STUDY DURATION: 91-92 WK)",inactive; negative
same,carcinogen call,"Species: RAT, Strain/Sex: OSBORNE-MENDEL/FEMALE, Route: ORAL, Dose: 0, 14216, 28433 PPM IN DIET FOR 78 WK (STUDY DURATION: 110-111 WK), Dose: 0, 14216, 28433 PPM IN DIET FOR 78 WK (STUDY DURATION: 110-111 WK), Tumor Site: Type of Lesion: MAMMARY GLAND: ADENOCARCINOMA, STOMACH: CARCINOMA",equivocal
same,carcinogen call,"Species: RAT, Strain/Sex: OSBORNE-MENDEL/MALE, Route: ORAL, Dose: 0, 14216, 28433 PPM IN DIET FOR 78 WK (STUDY DURATION: 110-111 WK), Dose: 0, 14216, 28433 PPM IN DIET FOR 78 WK (STUDY DURATION: 110-111 WK)",inactive; negative
O=C(O)[C@@H](O)[C@@H](O)[C@H](O)[C@@H](O)C(=O)[O-].O=C(O)[C@@H](O)[C@@H](O)[C@H](O)[C@@H](O)C(=O)[O-].O=C(O)[C@@H](O)[C@@H](O)[C@H](O)[C@@H](O)C(=O)[O-].[Fe+3],carcinogen call,"Species: RAT, Strain/Sex: WISTAR/MALE, Route: INTRAPERITONEAL, Dose: 0, 5 MG/KG IN GLUCOSE SOLUTION 1/D 6 D/WK FOR 3 MO (STUDY DURATION: 1 YR, 3 MO), Tumor Site: Type of Lesion: PERITONEAL CAVITY: MESOTHELIOMA",active; positive
CO/N=C(/C(=O)OC)c1ccccc1COc1ccccc1C,carcinogen call,"Species: Mouse, Strain/Sex: Strain not specified by Department of Pesticide Regulation /Female (50/Group), Route: Oral, Dose: 0, 81, 400, 1662 mg/kg/day of 93.7-96.6% kresoxim-methyl in diet for 18 mo, study duration 18 mo, Dose: 0, 81, 400, 1662 mg/kg/day of 93.7-96.6% kresoxim-methyl in diet for 18 mo, study duration 18 mo",inactive; negative
same,carcinogen call,"Species: Mouse, Strain/Sex: Strain not specified by Department of Pesticide Regulation /Male (50/Group), Route: Oral, Dose: 0, 60, 304, 1305 mg/kg/day of 93.7-96.6% kresoxim-methyl in diet for 18 mo, study duration 18 mo, Dose: 0, 60, 304, 1305 mg/kg/day of 93.7-96.6% kresoxim-methyl in diet for 18 mo, study duration 18 mo",inactive; negative
same,carcinogen call,"Species: Rat, Strain/Sex: Wistar/Female (20/Group), Route: Oral, Dose: 0, 12, 48, 503, 985 mg/kg/day of 93.7-96.6% kresoxim-methyl in diet for 24 mo, study duration 24 mo, Dose: 0, 12, 48, 503, 985 mg/kg/day of 93.7-96.6% kresoxim-methyl in diet for 24 mo, study duration 24 mo, Tumor Site: Type of Lesion: Liver: hepatocellular carcinoma (1/20, 0/20, 2/20, 6/20, 6/20)",active; positive
same,carcinogen call,"Species: Rat, Strain/Sex: Wistar/Female (50/Group), Route: Oral, Dose: 0, 12, 47, 497, 1046 mg/kg/day of 93.7-96.6% kresoxim-methyl in diet for 24 mo, study duration 24 mo, Dose: 0, 12, 47, 497, 1046 mg/kg/day of 93.7-96.6% kresoxim-methyl in diet for 24 mo, study duration 24 mo, Tumor Site: Type of Lesion: Liver: hepatocellular carcinoma (1/50, 1/50, 2/50, 13/50, 16/50)",active; positive
same,carcinogen call,"Species: Rat, Strain/Sex: Wistar/Male (20/Group), Route: Oral, Dose: 0, 9, 36, 370, 746 mg/kg/day of 93.7-96.6% kresoxim-methyl in diet for 24 mo, study duration 24 mo, Dose: 0, 9, 36, 370, 746 mg/kg/day of 93.7-96.6% kresoxim-methyl in diet for 24 mo, study duration 24 mo, Tumor Site: Type of Lesion: Liver: hepatocellular carcinoma (0/20, 1/20, 1/20, 3/20, 8/20)",active; positive
same,carcinogen call,"Species: Rat, Strain/Sex: Wistar/Male (50/Group), Route: Oral, Dose: 0, 9, 36, 375, 770 mg/kg/day of 93.7-96.6% kresoxim-methyl in diet for 24 mo, study duration 24 mo, Dose: 0, 9, 36, 375, 770 mg/kg/day of 93.7-96.6% kresoxim-methyl in diet for 24 mo, study duration 24 mo, Tumor Site: Type of Lesion: Liver: hepatocellular carcinoma (7/50, 5/50, 2/50, 18/50, 11/50). Spleen: hemangiosarcoma (0/50, 0/50, 2/50, 2/50, 3/50)",active; positive
CCN(CC)C(=S)S,carcinogen call,"Species: MOUSE, Strain/Sex: B6C3F1/FEMALE, Route: ORAL, Dose: 0, 500, 4000 PPM IN DIET, Dose: 0, 500, 4000 PPM IN DIET",inactive; negative
same,carcinogen call,"Species: MOUSE, Strain/Sex: B6C3F1/MALE, Route: ORAL, Dose: 0, 500, 4000 PPM IN DIET, Dose: 0, 500, 4000 PPM IN DIET",inactive; negative
same,carcinogen call,"Species: RAT, Strain/Sex: F344/FEMALE, Route: ORAL, Dose: 0, 1250, 2000 PPM IN DIET, Dose: 0, 1250, 2000 PPM IN DIET",inactive; negative
same,carcinogen call,"Species: RAT, Strain/Sex: F344/MALE, Route: ORAL, Dose: 0, 1250, 2000 PPM IN DIET, Dose: 0, 1250, 2000 PPM IN DIET",inactive; negative
O=[N+]([O-])c1ccc(O)cc1,carcinogen call,"Species: MOUSE, Strain/Sex: SWISS/FEMALE, Route: DERMAL, Dose: 0, 40, 80, 160 MG/KG IN ACETONE 3 D/WK FOR 78 WK (STUDY DURATION: 18 MO), Dose: 0, 40, 80, 160 MG/KG IN ACETONE 3 D/WK FOR 78 WK (STUDY DURATION: 18 MO)",inactive; negative
same,carcinogen call,"Species: MOUSE, Strain/Sex: SWISS/MALE, Route: DERMAL, Dose: 0, 40, 80, 160 MG/KG IN ACETONE 3 D/WK FOR 78 WK (STUDY DURATION: 18 MO), Dose: 0, 40, 80, 160 MG/KG IN ACETONE 3 D/WK FOR 78 WK (STUDY DURATION: 18 MO)",inactive; negative
[N-]=[N+]=[N-],carcinogen call,"Species: RAT, Strain/Sex: F344/FEMALE, Route: GAVAGE, Dose: 0, 5, 10 MG/KG IN DISTILLED WATER 5 D/WK FOR 103 WK (STUDY DURATION: 2 YR), Dose: 0, 5, 10 MG/KG IN DISTILLED WATER 5 D/WK FOR 103 WK (STUDY DURATION: 2 YR)",inactive; negative
same,carcinogen call,"Species: RAT, Strain/Sex: F344/MALE, Route: GAVAGE, Dose: 0, 5, 10 MG/KG IN DISTILLED WATER 5 D/WK FOR 103 WK (STUDY DURATION: 2 YR), Dose: 0, 5, 10 MG/KG IN DISTILLED WATER 5 D/WK FOR 103 WK (STUDY DURATION: 2 YR)",inactive; negative
CCCCN(N=O)C(=O)CCC(=O)OCC,carcinogen call,"Species: RAT, Strain/Sex: F344/MALE,FEMALE, Route: SUBCUTANEOUS, Dose: 38 UMOL/KG IN OLIVE OIL 1/WK FOR 10 WK, Tumor Site: Type of Lesion: INJECTION SITE: MALIGNANT FIBROUS HISTIOCYTOMA",active; positive
